Test results taken from ChEMBL document CHEMBL1201861, “Genomics of Drug Sensitity in Cancer screening data, Wellcome Trust Sanger Institute”.

Columns and labels:
Test in all cases: cells
COLO-741 = format: functional, cell-based, Homo sapiens; details: Homo sapiens, COLO-741
Description: SANGER: Inhibition of human COLO-741 cell growth in a cell viability assay.

COLO-800 = format: functional, cell-based, Homo sapiens; details: Homo sapiens, COLO-800;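 further: growth inhibition of COLO-800 cells, read out with a cell viability assay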
Description: SANGER: Inhibition of human COLO-800 cell growth in a cell viability assay.

CP66-MEL = format: functional, cell-based, Homo sapiens; details: Homo sapiens, CP66-MEL;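 further: growth inhibition of CP66-MEL cells determined in a cell viability assay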
Description: SANGER: Inhibition of human CP66-MEL cell growth in a cell viability assay.

DBTRG-05MG = format: functional, cell-based, Homo sapiens; details: Homo sapiens, DBTRG-05MG;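 further: cell viability assay measuring growth inhibition of human DBTRG-05MG cells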
Description: SANGER: Inhibition of human DBTRG-05MG cell growth in a cell viability assay.

DU-4475 = format: functional, cell-based; details: Homo sapiens
Description: SANGER: Inhibition of human DU-4475 cell growth in a cell viability assay.

EFO-27 = format: functional, cell-based, Homo sapiens; details: Homo sapiens, EFO-27;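 further: growth inhibition of EFO-27 cells, read out with a cell viability assay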
Description: SANGER: Inhibition of human EFO-27 cell growth in a cell viability assay.

GB-1 = format: functional, cell-based, Homo sapiens; details: Homo sapiens, GB-1;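 further: growth of GB-1 cells judged by a viability assay, IC50 marks the concentration inhibiting growth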
Description: SANGER: Inhibition of human GB-1 cell growth in a cell viability assay.

GP5d = format: functional, cell-based, Homo sapiens; details: Homo sapiens, GP5d;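 further: growth inhibition of human GP5d cells, read out with a cell viability assay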
Description: SANGER: Inhibition of human GP5d cell growth in a cell viability assay.

HAL-01 = format: functional, cell-based; details: Homo sapiens;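 further: growth inhibition of human HAL-01 cells, read out with a cell viability assay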
Description: SANGER: Inhibition of human HAL-01 cell growth in a cell viability assay.

HDLM-2 = format: functional, cell-based; details: Homo sapiens;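 further: cell viability assay measuring suppression of HDLM-2 proliferation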
Description: SANGER: Inhibition of human HDLM-2 cell growth in a cell viability assay.

HT-1080 = format: functional, cell-based, Homo sapiens; details: Homo sapiens, HT-1080
Description: SANGER: Inhibition of human HT-1080 cell growth in a cell viability assay.

KNS-81-FD = format: functional, cell-based, Homo sapiens; details: Homo sapiens, KNS-81-FD;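 further: growth inhibition of KNS-81-FD cells, read out with a cell viability assay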
Description: SANGER: Inhibition of human KNS-81-FD cell growth in a cell viability assay.

KP-N-YN = format: functional, cell-based; details: Homo sapiens;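 further: growth inhibition of KP-N-YN cells, read out with a cell viability assay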
Description: SANGER: Inhibition of human KP-N-YN cell growth in a cell viability assay.

KU-19-19 = format: functional, cell-based, Homo sapiens; details: Homo sapiens, KU-19-19
Description: SANGER: Inhibition of human KU-19-19 cell growth in a cell viability assay.

KYSE-140 = format: functional, cell-based, Homo sapiens; details: Homo sapiens, KYSE-140;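 further: cell viability assay measuring growth inhibition in human KYSE-140 cells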
Description: SANGER: Inhibition of human KYSE-140 cell growth in a cell viability assay.

KYSE-510 = format: functional, cell-based, Homo sapiens; details: Homo sapiens, KYSE-510;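 further: cell viability readout used to measure how strongly growth of the cell line is suppressed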
Description: SANGER: Inhibition of human KYSE-510 cell growth in a cell viability assay.

LC-2-ad = format: functional, cell-based, Homo sapiens; details: Homo sapiens, LC-2-ad;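 further: growth inhibition of human LC-2-ad cells, read out with a cell viability assay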
Description: SANGER: Inhibition of human LC-2-ad cell growth in a cell viability assay.

LK-2 = format: functional, cell-based, Homo sapiens; details: Homo sapiens, LK-2;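 further: growth inhibition of LK-2 cells, read out with a viability assay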
Description: SANGER: Inhibition of human LK-2 cell growth in a cell viability assay.

LU-139 = format: functional, cell-based; details: Homo sapiens
Description: SANGER: Inhibition of human LU-139 cell growth in a cell viability assay.

M059J = format: functional, cell-based, Homo sapiens; details: Homo sapiens, M059J;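 further: growth inhibition of M059J cells, read out with a cell viability assay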
Description: SANGER: Inhibition of human M059J cell growth in a cell viability assay.

MC-IXC = format: functional, cell-based, Homo sapiens; details: Homo sapiens, MC-IXC;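 further: growth inhibition of MC-IXC cells, read out with a cell viability assay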
Description: SANGER: Inhibition of human MC-IXC cell growth in a cell viability assay.

MeWo = format: functional, cell-based, Homo sapiens; details: Homo sapiens, MeWo;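 further: growth inhibition of MeWo cells, determined by a cell viability readout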
Description: SANGER: Inhibition of human Mewo cell growth in a cell viability assay.

Mo = format: functional, cell-based; details: Homo sapiens
Description: SANGER: Inhibition of human Mo-T cell growth in a cell viability assay.

NB12 = format: functional, cell-based, Homo sapiens; details: Homo sapiens, NB12;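 further: growth inhibition of human NB12 cells, read out by a cell viability assay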
Description: SANGER: Inhibition of human NB12 cell growth in a cell viability assay.

NB7 = format: functional, cell-based; details: Homo sapiens;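 further: growth inhibition of NB7 cells, read out with a cell viability assay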
Description: SANGER: Inhibition of human NB7 cell growth in a cell viability assay.

NCI-H1304 = format: functional, cell-based; details: Homo sapiens;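 further: growth inhibition of the cancer cell line, measured in a cell viability assay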
Description: SANGER: Inhibition of human NCI-H1304 cell growth in a cell viability assay.

NCI-H1563 = format: functional, cell-based, Homo sapiens; details: Homo sapiens, NCI-H1563;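 further: growth inhibition of human NCI-H1563 cells, read out with a cell viability assay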
Description: SANGER: Inhibition of human NCI-H1563 cell growth in a cell viability assay.

NEC8 = format: functional, cell-based, Homo sapiens; details: Homo sapiens, NEC8;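 further: growth inhibition of human NEC8 cells, read out by a cell viability assay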
Description: SANGER: Inhibition of human NEC8 cell growth in a cell viability assay.

NH-12 = format: functional, cell-based, Homo sapiens; details: Homo sapiens, NH-12;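 further: growth inhibition of NH-12 cells, read out with a cell viability assay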
Description: SANGER: Inhibition of human NH-12 cell growth in a cell viability assay.

OE33 = format: functional, cell-based, Homo sapiens; details: Homo sapiens, OE33;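 further: growth inhibition of human OE33 cells, measured by a cell viability assay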
Description: SANGER: Inhibition of human OE33 cell growth in a cell viability assay.

OS-RC-2 = format: functional, cell-based, Homo sapiens; details: Homo sapiens, OS-RC-2;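 further: growth inhibition of human OS-RC-2 cells, measured by a cell viability assay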
Description: SANGER: Inhibition of human OS-RC-2 cell growth in a cell viability assay.

OVCAR-5 = format: functional, cell-based, Homo sapiens; details: Homo sapiens, OVCAR-5;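 further: growth inhibition of human OVCAR-5 cells, read out with a cell viability assay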
Description: SANGER: Inhibition of human OVCAR-5 cell growth in a cell viability assay.

PA-1 = format: functional, cell-based, Homo sapiens; details: Homo sapiens, PA-1;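 further: IC50 for suppression of PA-1 cell proliferation, determined with a cell viability read-out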
Description: SANGER: Inhibition of human PA-1 cell growth in a cell viability assay.

PSN1 = format: functional, cell-based, Homo sapiens; details: Homo sapiens, PSN1;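 further: suppression of growth of human PSN1 cells, read out by a cell viability assay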
Description: SANGER: Inhibition of human PSN1 cell growth in a cell viability assay.

RVH-421 = format: functional, cell-based, Homo sapiens; details: Homo sapiens, RVH-421
Description: SANGER: Inhibition of human RVH-421 cell growth in a cell viability assay.

SCC-4 = format: functional, cell-based, Homo sapiens; details: Homo sapiens, SCC-4;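 further: growth inhibition of human SCC-4 cells, read out as cell viability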
Description: SANGER: Inhibition of human SCC-4 cell growth in a cell viability assay.

SCH = format: functional, cell-based, Homo sapiens; details: Homo sapiens, SCH;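 further: growth inhibition of human SCH cells, read out in a cell viability assay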
Description: SANGER: Inhibition of human SCH cell growth in a cell viability assay.

SK-HEP1 = format: functional, cell-based, Homo sapiens, SK-HEP-1; details: Homo sapiens, SK-HEP1;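 further: cell viability readout used to quantify reduction in proliferation of human SK-HEP-1 cells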
Description: SANGER: Inhibition of human SK-HEP-1 cell growth in a cell viability assay.

SK-LMS-1 = format: functional, cell-based, Homo sapiens; details: Homo sapiens, SK-LMS-1;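 further: growth inhibition of human SK-LMS-1 cells, read out with a cell viability assay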
Description: SANGER: Inhibition of human SK-LMS-1 cell growth in a cell viability assay.

SK-OV-3 = format: functional, cell-based, Homo sapiens; details: Homo sapiens, SK-OV-3;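 further: growth inhibition of SK-OV-3 human cells, read out with a cell viability assay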
Description: SANGER: Inhibition of human SK-OV-3 cell growth in a cell viability assay.

SN12C = format: functional, cell-based, Homo sapiens; details: Homo sapiens, SN12C;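 further: growth inhibition of human SN12C cells, measured by a cell viability assay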
Description: SANGER: Inhibition of human SN12C cell growth in a cell viability assay.

ACN = format: functional, cell-based, Homo sapiens; details: Homo sapiens, ACN;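 further: growth inhibition of the human ACN cell line, read out via cell viability testing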
Description: SANGER: Inhibition of human ACN cell growth in a cell viability assay.

AN3-CA = format: functional, cell-based; details: Homo sapiens;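 further: growth inhibition of human AN3-CA cells measured by a cell viability assay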
Description: SANGER: Inhibition of human AN3-CA cell growth in a cell viability assay.

BV-173 = format: functional, cell-based; details: Homo sapiens
Description: SANGER: Inhibition of human BV-173 cell growth in a cell viability assay.

CAL-33 = format: functional, cell-based, Homo sapiens; details: Homo sapiens, CAL-33;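 further: growth inhibition of CAL-33 cells, read out with a cell viability assay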
Description: SANGER: Inhibition of human CAL-33 cell growth in a cell viability assay.

CAL-39 = format: functional, cell-based, Homo sapiens; details: Homo sapiens, CAL-39;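 further: cell viability assay measuring growth inhibition of CAL-39 cells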
Description: SANGER: Inhibition of human CAL-39 cell growth in a cell viability assay.

CAL-54 = format: functional, cell-based, Homo sapiens; details: Homo sapiens, CAL-54;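 further: growth inhibition of CAL-54 cells, read out by a viability measurement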
Description: SANGER: Inhibition of human CAL-54 cell growth in a cell viability assay.

TE-12 = format: functional, cell-based; details: Homo sapiens;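 further: growth inhibition of TE-12 cells, read out by a cell viability assay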
Description: SANGER: Inhibition of human TE-12 cell growth in a cell viability assay.

TE-5 = format: functional, cell-based, Homo sapiens; details: Homo sapiens, TE-5;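 further: inhibition of cell growth, read out by a cell viability assay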
Description: SANGER: Inhibition of human TE-5 cell growth in a cell viability assay.

WM-115 = format: functional, cell-based, Homo sapiens; details: Homo sapiens, WM-115
Description: SANGER: Inhibition of human WM-115 cell growth in a cell viability assay.

CAPAN-1 = format: functional, cell-based, Homo sapiens; details: Homo sapiens, CAPAN-1;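 further: growth suppression of CAPAN-1 cells, read out by a cell viability assay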
Description: SANGER: Inhibition of human CAPAN-1 cell growth in a cell viability assay.

Work on `CN(C)C/C=C/C(=O)Nc1cc2c(Nc3ccc(F)c(Cl)c3)ncnc2cc1O[C@H]1CCOC1` [AFATINIB] yielded an IC50 (COLO-741) greater than 500 nM, an IC50 (COLO-800) greater than 500 nM and an IC50 (CP66-MEL) greater than 500 nM. The IC50 (DBTRG-05MG) was greater than 500 nM, the IC50 (DU-4475) was greater than 500 nM and the IC50 (EFO-27) was 51.8 nM. The IC50 (GB-1) was greater than 500 nM, the IC50 (GP5d) was greater than 500 nM and the IC50 (HAL-01) was greater than 500 nM. It also gave an IC50 (HDLM-2) of 5.72 nM, an IC50 (HT-1080) greater than 500 nM and an IC50 (KNS-81-FD) greater than 500 nM. For the same molecule, the IC50 (KP-N-YN) was greater than 500 nM, the IC50 (KU-19-19) was greater than 500 nM and the IC50 (KYSE-140) was 83.3 nM. It also gave an IC50 (KYSE-510) greater than 500 nM, an IC50 (LC-2-ad) greater than 500 nM and an IC50 (LK-2) greater than 500 nM. The IC50 (LU-139) was 305 nM, the IC50 (M059J) was greater than 500 nM and the IC50 (MC-IXC) was greater than 500 nM. For the same molecule, the IC50 (MeWo) was greater than 500 nM, the IC50 (Mo) was greater than 500 nM and the IC50 (NB12) was greater than 500 nM. For the same molecule, the IC50 (NB7) was greater than 500 nM, the IC50 (NCI-H1304) was greater than 500 nM and the IC50 (NCI-H1563) was greater than 500 nM. The IC50 (NEC8) was greater than 500 nM, the IC50 (NH-12) was greater than 500 nM and the IC50 (OE33) was greater than 500 nM. The IC50 (OS-RC-2) was greater than 500 nM, the IC50 (OVCAR-5) was greater than 500 nM and the IC50 (PA-1) was greater than 500 nM. For the same molecule, the IC50 (PSN1) was greater than 500 nM, the IC50 (RVH-421) was greater than 500 nM and the IC50 (SCC-4) was greater than 500 nM. For the same molecule, the IC50 (SCH) was greater than 500 nM, the IC50 (SK-HEP1) was greater than 500 nM and the IC50 (SK-LMS-1) was greater than 500 nM. It also gave an IC50 (SK-OV-3) greater than 500 nM, an IC50 (SN12C) greater than 500 nM and an IC50 (ACN) greater than 500 nM. The IC50 (AN3-CA) was greater than 500 nM, the IC50 (BV-173) was 176 nM and the IC50 (CAL-33) was 202 nM. The IC50 (CAL-39) was 118 nM, the IC50 (CAL-54) was greater than 500 nM and the IC50 (TE-12) was greater than 500 nM. For the same molecule, the IC50 (TE-5) was greater than 500 nM, the IC50 (WM-115) was greater than 500 nM and the IC50 (CAPAN-1) was greater than 500 nM.
`O=C(NOCC1CC1)c1ccc(F)c(F)c1Nc1ccc(I)cc1Cl` [CI-1040] was tested, and the IC50 (COLO-741) was 3190 nM, the IC50 (COLO-800) was greater than 10000 nM and the IC50 (CP66-MEL) was 488 nM. The IC50 (DBTRG-05MG) was 8750 nM, the IC50 (DU-4475) was 76 nM and the IC50 (EFO-27) was 4790 nM. It also gave an IC50 (GB-1) greater than 10000 nM, an IC50 (GP5d) of 983 nM and an IC50 (HAL-01) greater than 10000 nM. It also gave an IC50 (HDLM-2) greater than 10000 nM, an IC50 (HT-1080) of 3020 nM and an IC50 (KNS-81-FD) greater than 10000 nM. For the same molecule, the IC50 (KP-N-YN) was greater than 10000 nM, the IC50 (KU-19-19) was 3170 nM and the IC50 (KYSE-140) was 6020 nM. The IC50 (KYSE-510) was greater than 10000 nM, the IC50 (LC-2-ad) was greater than 10000 nM and the IC50 (LK-2) was greater than 10000 nM. For the same molecule, the IC50 (LU-139) was greater than 10000 nM, the IC50 (M059J) was greater than 10000 nM and the IC50 (MC-IXC) was greater than 10000 nM. For the same molecule, the IC50 (MeWo) was 1200 nM, the IC50 (Mo) was greater than 10000 nM and the IC50 (NB12) was greater than 10000 nM. For the same molecule, the IC50 (NB7) was 2340 nM, the IC50 (NCI-H1304) was 6200 nM and the IC50 (NCI-H1563) was greater than 10000 nM. The IC50 (NEC8) was greater than 10000 nM, the IC50 (NH-12) was 4720 nM and the IC50 (OE33) was greater than 10000 nM. The IC50 (OS-RC-2) was greater than 10000 nM, the IC50 (OVCAR-5) was 1780 nM and the IC50 (PA-1) was 5640 nM. It also gave an IC50 (PSN1) of 962 nM, an IC50 (RVH-421) of 972 nM and an IC50 (SCC-4) greater than 10000 nM. For the same molecule, the IC50 (SCH) was greater than 10000 nM, the IC50 (SK-HEP1) was 5930 nM and the IC50 (SK-LMS-1) was greater than 10000 nM. It also gave an IC50 (SK-OV-3) greater than 10000 nM, an IC50 (SN12C) of 3250 nM and an IC50 (ACN) of 267 nM. For the same molecule, the IC50 (AN3-CA) was 6690 nM, the IC50 (BV-173) was 1440 nM and the IC50 (CAL-33) was 5120 nM. For the same molecule, the IC50 (CAL-39) was 2900 nM, the IC50 (CAL-54) was 5030 nM and the IC50 (TE-12) was 9030 nM. It also gave an IC50 (TE-5) of 8420 nM, an IC50 (WM-115) of 493 nM and an IC50 (CAPAN-1) greater than 10000 nM.
For `Nc1ccn([C@@H]2O[C@H](CO)[C@@H](O)[C@@H]2O)c(=O)n1` [CYTARABINE], the IC50 (COLO-741) was greater than 2000 nM, the IC50 (COLO-800) was 425 nM and the IC50 (CP66-MEL) was greater than 2000 nM. The IC50 (DBTRG-05MG) was greater than 2000 nM, the IC50 (DU-4475) was 575 nM and the IC50 (EFO-27) was 1940 nM. The IC50 (GB-1) was greater than 2000 nM, the IC50 (GP5d) was 102 nM and the IC50 (HAL-01) was 328 nM. It also gave an IC50 (HDLM-2) greater than 2000 nM, an IC50 (HT-1080) of 114 nM and an IC50 (KNS-81-FD) greater than 2000 nM. It also gave an IC50 (KP-N-YN) greater than 2000 nM, an IC50 (KU-19-19) greater than 2000 nM and an IC50 (KYSE-140) greater than 2000 nM. It also gave an IC50 (KYSE-510) of 306 nM, an IC50 (LC-2-ad) of 230 nM and an IC50 (LK-2) of 461 nM. The IC50 (LU-139) was greater than 2000 nM, the IC50 (M059J) was 1820 nM and the IC50 (MC-IXC) was 41.4 nM. It also gave an IC50 (MeWo) of 1240 nM, an IC50 (Mo) greater than 2000 nM and an IC50 (NB12) greater than 2000 nM. For the same molecule, the IC50 (NB7) was 1520 nM, the IC50 (NCI-H1304) was greater than 2000 nM and the IC50 (NCI-H1563) was greater than 2000 nM. For the same molecule, the IC50 (NEC8) was 134 nM, the IC50 (NH-12) was 1160 nM and the IC50 (OE33) was 1800 nM. It also gave an IC50 (OS-RC-2) of 1580 nM, an IC50 (OVCAR-5) of 220 nM and an IC50 (PA-1) of 187 nM. It also gave an IC50 (PSN1) of 193 nM, an IC50 (RVH-421) greater than 2000 nM and an IC50 (SCC-4) of 965 nM. The IC50 (SCH) was greater than 2000 nM, the IC50 (SK-HEP1) was 556 nM and the IC50 (SK-LMS-1) was greater than 2000 nM. The IC50 (SK-OV-3) was greater than 2000 nM, the IC50 (SN12C) was 623 nM and the IC50 (ACN) was greater than 2000 nM. For the same molecule, the IC50 (AN3-CA) was 1840 nM, the IC50 (BV-173) was 516 nM and the IC50 (CAL-33) was 1180 nM. For the same molecule, the IC50 (CAL-39) was 998 nM, the IC50 (CAL-54) was 940 nM and the IC50 (TE-12) was greater than 2000 nM. The IC50 (TE-5) was 381 nM, the IC50 (WM-115) was greater than 2000 nM and the IC50 (CAPAN-1) was greater than 2000 nM.
